Data on 1 compound can be found in article PMC11821258 (Molecules, 2025).

For the first assay, the system named is human biphenotypic B myelomonocytic leukemia MV4-11. Description: Antiproliferative activity, MTT assay, 72 h. The following applies: Homo sapiens; MV4-11, 72 h, MTT; read-out: IC50. It is filed as cell-based. The protocol: (§1) The tested compounds were dissolved in DMSO (dimethyl sulfoxide) to a concentration of 10 mg/mL and then were diluted in the culture medium to reach the final concentrations. The cells were plated in 384-well plates at a density of 1 × 10^3 or 2 × 10^3 (MCF-10A) cells per well (Greiner Bio One, Kremsmünster, Austria) and in 96-well plates (MV4-11 cell; Sarstedt, Nümbrecht, Germany) at a density of 5 × 10^3 cells per well. After 24 h of incubation, the tested compounds were added at concentrations in the range of 100–0.03 µg/mL and, after the next 72 h of exposure to tested agents, the cytotoxic effect of all agents was examined using the MTT (MV4-11) or SRB assay, described previously. The values of IC50 (inhibitory concentration 50%) were calculated separately for each experiment (repeated 3–5 times) using the Prolab-3 system which is based on Cheburator 0.4 software. Doxorubicin was applied as a reference drug. The IC50 values in µg/mL were calculated to µM.
This assay was used against MV4-11 leukemia cells and was performed after 72 h of exposure of the tested agents to the cells. For each well, 20 µL of the MTT [3-(4,5-dimethylthiazol-2-yl)-2,5-diphenyl tetrazolium bromide] solution (5 mg/mL, Merck, Darmstadt, Germany) was added. After the incubation time (4 h at 37 °C), 80 µL of the lysing buffer was added to each well (mixture of 225 mL of DMF (dimethylformamide) Avantor, Poland; 67.5 g of SDS, Merck, Darmstadt, Germany; and 275 mL of distilled water). After the next 24 h, the absorbance of the samples was measured at a 570 nm wavelength on a Synergy H4 photometer (BioTek Instruments, Winooski, VT, USA). The absorbance of wells without the cells was the background.
Take `C=C(C)[C@@H]1CC[C@]2(CO)CC[C@]3(C)C(CCC4[C@@]5(C)CC[C@H](OC(=O)CC(C)(C)CC(=O)O)C(C)(C)C5CC[C@]43C)C12` (some centres unmarked) [Compound 4]: the IC50 came to 4.77 ± 0.44 µM.

Still in this assay, the particulars now being: IC50 MCF-10A / IC50 MV4-11.
For `C=C(C)[C@@H]1CC[C@]2(CO)CC[C@]3(C)C(CCC4[C@@]5(C)CC[C@H](OC(=O)CC(C)(C)CC(=O)O)C(C)(C)C5CC[C@]43C)C12` (some centres unmarked) [Compound 4], the SI is recorded as 6.60.

In a further assay the test system is human breast cancer MCF-7. Description: Antiproliferative activity, SRB assay, 72 h. It counts as cell-based. To be noted: Homo sapiens, MCF7; MCF-7, 72 h, SRB; read-out: IC50. The protocol: as §1
(§2) The cytotoxicity assay was performed after the cultured cells were exposed to the tested agents for 72 h using the authomatic Washer dyspenser EL406, BioTek. At the first step, the washer dispenser collected 40 µL of cultured medium from each wells, and then the cells were fixed by gently layering 20 µL per well of cold 25% trichloroacetic acid to each well. The incubation time was 40 min and then the plates were washed with tap water. The cells were stained with 20 µL per well of 0.1% sulforhodamine B (SRB, Merck, Darmstadt, Germany) for 30 min. Unbound sulforhodamine B was removed by washing it with 1% acetic acid. The protein-bound dye was extracted in 30 min using 70 µL per well of 10 mM unbuffered Tris base (Merck, Darmstadt, Germany). The absorbance (at 540 nm) was measured on a Synergy H4 photometer (BioTek Instruments, Winooski, VT, USA). The absorbance of the wells without the cells was the background.
With `C=C(C)[C@@H]1CC[C@]2(CO)CC[C@]3(C)C(CCC4[C@@]5(C)CC[C@H](OC(=O)CC(C)(C)CC(=O)O)C(C)(C)C5CC[C@]43C)C12` (some centres unmarked) [Compound 4], the IC50 was determined as 12.1 ± 3.08 µM.

Still in this assay, the particulars now being: IC50 MCF-10A / IC50 MCF-7.
On to `C=C(C)[C@@H]1CC[C@]2(CO)CC[C@]3(C)C(CCC4[C@@]5(C)CC[C@H](OC(=O)CC(C)(C)CC(=O)O)C(C)(C)C5CC[C@]43C)C12` (some centres unmarked) [Compound 4], for which the SI is reported as 2.60.

In the next assay the test system is human colon cancer HCT116 cells. In words: Antiproliferative activity, SRB assay, 72 h. It counts as cell-based. To be noted: Homo sapiens, HCT-116; HCT116, 72 h, SRB; read-out: IC50. As for the experimental part:
as §1, §2
As to `C=C(C)[C@@H]1CC[C@]2(CO)CC[C@]3(C)C(CCC4[C@@]5(C)CC[C@H](OC(=O)CC(C)(C)CC(=O)O)C(C)(C)C5CC[C@]43C)C12` (some centres unmarked) [Compound 4], the half-inhibitory concentration (IC50) was determined as 11.1 ± 2.56 µM.

Still in this assay, the particulars now being: IC50 MCF-10A / IC50 HCT116.
As to `C=C(C)[C@@H]1CC[C@]2(CO)CC[C@]3(C)C(CCC4[C@@]5(C)CC[C@H](OC(=O)CC(C)(C)CC(=O)O)C(C)(C)C5CC[C@]43C)C12` (some centres unmarked) [Compound 4], the SI was 2.83.

For another assay, the system named is human lung carcinoma A549. Description: Antiproliferative activity, SRB assay, 72 h. It counts as cell-based. The following applies: Homo sapiens; A549, 72 h, SRB; read-out: IC50. The protocol: as §1, §2
In the case of `C=C(C)[C@@H]1CC[C@]2(CO)CC[C@]3(C)C(CCC4[C@@]5(C)CC[C@H](OC(=O)CC(C)(C)CC(=O)O)C(C)(C)C5CC[C@]43C)C12` (some centres unmarked) [Compound 4], the IC50 is 3.76 ± 2.05 µM.

Staying with this assay, now noted: IC50 MCF-10A / IC50 A549.
Consider `C=C(C)[C@@H]1CC[C@]2(CO)CC[C@]3(C)C(CCC4[C@@]5(C)CC[C@H](OC(=O)CC(C)(C)CC(=O)O)C(C)(C)C5CC[C@]43C)C12` (some centres unmarked) [Compound 4], for which the SI is 8.36.

A further assay deals with human melanoma Hs294T cells. Description: Antiproliferative activity, SRB assay, 72 h. It is filed as cell-based. The following applies: Homo sapiens, Hs 294T; Hs249T (so in the source), 72 h, SRB; read-out: IC50. As for the experimental part: as §1, §2
For `C=C(C)[C@@H]1CC[C@]2(CO)CC[C@]3(C)C(CCC4[C@@]5(C)CC[C@H](OC(=O)CC(C)(C)CC(=O)O)C(C)(C)C5CC[C@]43C)C12` (some centres unmarked) [Compound 4], the IC50 worked out at 24.4 ± 8.89 µM.

The assay is the same for the next values; noted with them: IC50 MCF-10A / IC50 Hs249T (so in the source).
For `C=C(C)[C@@H]1CC[C@]2(CO)CC[C@]3(C)C(CCC4[C@@]5(C)CC[C@H](OC(=O)CC(C)(C)CC(=O)O)C(C)(C)C5CC[C@]43C)C12` (some centres unmarked) [Compound 4], the SI stood at 1.29.

The next assay concerns human pancreas cancer MiaPaca-2 cells. In words: Antiproliferative activity, SRB assay, 72 h. It is filed as cell-based. To be noted: Homo sapiens, MIA PaCa-2; MiaPaca-1 (so in the source), 72 h, SRB; read-out: IC50. The protocol:
as §1, §2
Turning to `C=C(C)[C@@H]1CC[C@]2(CO)CC[C@]3(C)C(CCC4[C@@]5(C)CC[C@H](OC(=O)CC(C)(C)CC(=O)O)C(C)(C)C5CC[C@]43C)C12` (some centres unmarked) [Compound 4], the IC50 is 22.6 ± 6.5 µM.

The same assay, now with this note: IC50 MCF-10A / IC50 MiaPaca-1 (so in the source).
As to `C=C(C)[C@@H]1CC[C@]2(CO)CC[C@]3(C)C(CCC4[C@@]5(C)CC[C@H](OC(=O)CC(C)(C)CC(=O)O)C(C)(C)C5CC[C@]43C)C12` (some centres unmarked) [Compound 4], the SI amounted to 1.39.

The test system of a further assay is human prostate adenocarcinoma PC-3. Description: Antiproliferative activity, SRB assay, 72 h. It counts as cell-based. The following applies: Homo sapiens; PC-3, 72 h, SRB; read-out: IC50. As for the experimental part:
as §1, §2
Consider `C=C(C)[C@@H]1CC[C@]2(CO)CC[C@]3(C)C(CCC4[C@@]5(C)CC[C@H](OC(=O)CC(C)(C)CC(=O)O)C(C)(C)C5CC[C@]43C)C12` (some centres unmarked) [Compound 4], for which the half-maximal inhibitory concentration (IC50) was 19.2 ± 3.76 µM.

The same assay, now with this note: IC50 MCF-10A / IC50 PC-3.
On to `C=C(C)[C@@H]1CC[C@]2(CO)CC[C@]3(C)C(CCC4[C@@]5(C)CC[C@H](OC(=O)CC(C)(C)CC(=O)O)C(C)(C)C5CC[C@]43C)C12` (some centres unmarked) [Compound 4], for which the SI is recorded as 1.64.

In another assay the test system is human normal epithelial cells from the mammary gland (MCF-10A). In words: Cytotoxicity on non-tumorigenic cells, SRB assay, 72 h. It is filed as cell-based. To be noted: Homo sapiens, MCF-10A normal cells, SRB, read-out: IC50. The protocol:
as §1, §2
On to `C=C(C)[C@@H]1CC[C@]2(CO)CC[C@]3(C)C(CCC4[C@@]5(C)CC[C@H](OC(=O)CC(C)(C)CC(=O)O)C(C)(C)C5CC[C@]43C)C12` (some centres unmarked) [Compound 4], for which the IC50 came out at 31.5 ± 1.71 µM.

For another assay, the system named is tested cell lines (MV4-11, A549, MCF-7, PC-3, HCT116, MiaPaca-2, Hs294T). In words: Antiproliferative activity, range over the tested cell lines. It counts as cell-based. The following applies: Homo sapiens; range across cell lines, 72 h. The protocol:
as §1, with “The values of IC50 (inhibitory concentration 50%) were calculated separately for each experiment (repeated 3–5 times) using the Prolab-3 system which is based on Cheburator 0.4 software. Doxorubicin was applied as a reference drug.” left out
This assay was used against MV4-11 leukemia cells and was performed after 72 h of exposure of the tested agents to the cells. […] After the next 24 h, the absorbance of the samples was measured at a 570 nm wavelength on a Synergy H4 photometer (BioTek Instruments, Winooski, VT, USA). The absorbance of wells without the cells was the background.
The cytotoxicity assay was performed after the cultured cells were exposed to the tested agents for 72 h using the authomatic Washer dyspenser EL406, BioTek. […] The absorbance (at 540 nm) was measured on a Synergy H4 photometer (BioTek Instruments, Winooski, VT, USA). […]
As to `C=C(C)[C@@H]1CC[C@]2(CO)CC[C@]3(C)C(CCC4[C@@]5(C)CC[C@H](OC(=O)CC(C)(C)CC(=O)O)C(C)(C)C5CC[C@]43C)C12` (some centres unmarked) [Compound 4], the IC50 was in the range of 3.76 to 24.4 µM.

The test system of the next assay is MV4-11 cells. In words: Apoptosis determination via Annexin V and PI staining. It counts as cell-based, human. The following applies: MV4-11, 72 h, higher concentrations. The protocol:
Camptothecin at a concentration of 0.05 uM was used as a positive control. After incubation, the cells were collected and counted with a hemocytometer, and 1×10^5 cells were washed twice with PBS. APC-Annexin V (Becton Dickinson, Pharmingen, Franklin Lakes, NJ, USA) was dissolved to the concentration of […] in a binding buffer (10 mM HEPES/NaOH, pH 7.4; 150 mM NaCl; 5 mM KCl; 1 mM MgCl2; and 1.8 mM CaCl2) (HIIET, Wrocław, Poland), and the cells were suspended in 200 µL of this solution. After 15 min of the incubation in the dark at room temperature, 20 µL of propidium iodide (PI) solution (0.02 mg/mL) was added. Data acquisition was performed by conducting flow cytometry using a BD LSRFortessa cytometer (BD Bioscience, San Jose, CA, USA). The compounds were tested at least three times independently. Results were analyzed using Flowing software 2.5.1 (Turku, Finland). […] Double-negative cells were live cells, PI+/Annexin V+ were late apoptotic cells, PI-/Annexin V+ were early apoptotic cells, and PI+/Annexin V- were necrotic cells.
For the compound `C=C(C)[C@@H]1CC[C@]2(CO)CC[C@]3(C)C(CCC4[C@@]5(C)CC[C@H](OC(=O)CC(C)(C)CC(=O)O)C(C)(C)C5CC[C@]43C)C12` (some centres unmarked) [Compound 4], the induction of apoptosis entry is reported as “induction of apoptosis was observed”.
